The results in this text go back to article PMC7447754 (Nature Communications, 2020).

The subject of series [1] is SARS-CoV-2. The following applies: 24 h, pH 7.4.
In series [2] the test system is parainfluenza virus 3. The following applies: 24 h, pH 7.4.
Series [3] has as its system endosomal acidification in MDCK cells. The series is classed as cell-based, canine.
Series [4] concerns SARS-CoV-2. The series is classed as binding.
Series [5] concerns rhinovirus. In kind it is binding.
The subject of series [6] is virus–host endosomal acidification in H1N1-infected MDCK cells. In kind it is cell-based, canine.
Series [7] deals with SARS-CoV-2.
The test system of series [8] is MERS-CoV.
In series [9] the test system is SARS-CoV.
Series [10] relates to A(H7N9) virus.
Series [11] has as its system rhinovirus.
The target in series [12] is H1N1 HA1 protein (Influenza A virus, UniProt C3W5S1).
For series [13], the target named is MERS-CoV S protein (Middle East respiratory syndrome-related coronavirus, UniProt K9N5Q8).
For series [14], the system named is H1N1 virus.
Series [15] relates to H1N1 virus. This is another data set of the same source.
Series [16] concerns H1N1 virus. This is another data set of the same source.
Series [17] has as its system SARS-CoV-2. This is another data set of the same source.
Series [18] in a line: physchem. The following applies: water.

Values after ≈ are worked out from the molar mass of the structure shown. Where a SMILES comes first, the peptide text is derived from it.

Sequence of MERS-CoV S protein (K9N5Q8 18-1353 limits assumed): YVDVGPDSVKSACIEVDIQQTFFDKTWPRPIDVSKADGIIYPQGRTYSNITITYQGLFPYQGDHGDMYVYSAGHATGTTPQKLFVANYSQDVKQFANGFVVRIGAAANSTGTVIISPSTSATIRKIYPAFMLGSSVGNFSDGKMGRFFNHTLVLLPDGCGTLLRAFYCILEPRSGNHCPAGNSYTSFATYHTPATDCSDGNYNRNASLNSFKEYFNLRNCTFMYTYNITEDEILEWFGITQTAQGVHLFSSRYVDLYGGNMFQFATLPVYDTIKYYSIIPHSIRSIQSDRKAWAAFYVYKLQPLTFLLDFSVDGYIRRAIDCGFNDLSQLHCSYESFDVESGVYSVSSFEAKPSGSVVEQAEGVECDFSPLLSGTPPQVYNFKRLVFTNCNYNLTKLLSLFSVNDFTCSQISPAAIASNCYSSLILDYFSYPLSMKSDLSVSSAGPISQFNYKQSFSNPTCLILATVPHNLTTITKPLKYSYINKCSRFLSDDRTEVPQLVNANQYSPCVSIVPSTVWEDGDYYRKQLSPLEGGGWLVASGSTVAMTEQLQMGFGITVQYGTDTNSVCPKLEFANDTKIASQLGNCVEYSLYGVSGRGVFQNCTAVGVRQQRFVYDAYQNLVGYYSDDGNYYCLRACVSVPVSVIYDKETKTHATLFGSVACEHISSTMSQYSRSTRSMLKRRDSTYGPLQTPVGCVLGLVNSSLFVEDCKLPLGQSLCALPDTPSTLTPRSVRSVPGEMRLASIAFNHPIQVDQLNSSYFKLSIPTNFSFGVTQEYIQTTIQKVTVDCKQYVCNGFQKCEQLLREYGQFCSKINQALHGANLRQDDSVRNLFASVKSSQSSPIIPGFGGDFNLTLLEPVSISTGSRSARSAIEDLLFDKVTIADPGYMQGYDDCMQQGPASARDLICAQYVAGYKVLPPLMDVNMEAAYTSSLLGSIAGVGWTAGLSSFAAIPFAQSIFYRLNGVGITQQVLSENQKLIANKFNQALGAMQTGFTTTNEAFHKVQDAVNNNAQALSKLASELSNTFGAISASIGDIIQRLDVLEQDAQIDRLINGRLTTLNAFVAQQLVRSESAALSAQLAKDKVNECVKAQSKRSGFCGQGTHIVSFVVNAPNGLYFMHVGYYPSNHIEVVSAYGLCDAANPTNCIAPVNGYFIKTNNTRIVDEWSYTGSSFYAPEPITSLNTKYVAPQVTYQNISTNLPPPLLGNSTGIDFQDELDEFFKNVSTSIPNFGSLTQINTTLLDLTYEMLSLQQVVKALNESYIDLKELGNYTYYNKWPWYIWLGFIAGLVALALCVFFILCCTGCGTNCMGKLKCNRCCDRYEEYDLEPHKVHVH
Sequence of H1N1 HA1 protein (C3W5S1 18-344 limits assumed): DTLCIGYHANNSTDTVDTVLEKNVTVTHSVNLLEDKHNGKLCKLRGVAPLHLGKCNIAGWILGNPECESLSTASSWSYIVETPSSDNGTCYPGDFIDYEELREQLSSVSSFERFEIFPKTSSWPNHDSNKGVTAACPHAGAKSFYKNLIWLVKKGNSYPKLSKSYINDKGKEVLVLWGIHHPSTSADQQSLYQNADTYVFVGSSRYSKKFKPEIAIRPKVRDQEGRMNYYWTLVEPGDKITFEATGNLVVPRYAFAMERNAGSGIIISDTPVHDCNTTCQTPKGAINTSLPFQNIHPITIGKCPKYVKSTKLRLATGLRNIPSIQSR

Turning to `CC[C@H](C)[C@H](NC(=O)[C@H](C)NC(=O)CNC(=O)[C@@H](N)CC(N)=O)C(=O)N[C@@H](CS)C(=O)N[C@@H](Cc1c[nH]c2ccccc12)C(=O)NCC(=O)N1CCC[C@H]1C(=O)N[C@@H](CS)C(=O)N1CCC[C@H]1C(=O)N[C@H](C(=O)N[C@@H](C)C(=O)N[C@@H](Cc1ccccc1)C(=O)N[C@@H](CCCNC(=N)N)C(=O)N[C@@H](CCC(N)=O)C(=O)N[C@H](C(=O)NCC(=O)N[C@@H](CC(N)=O)C(=O)N[C@@H](CS)C(=O)NCC(=O)N[C@@H](Cc1c[nH]cn1)C(=O)N[C@@H](Cc1ccccc1)C(=O)N[C@@H](CCCCN)C(=O)N[C@H](C(=O)N[C@@H](CCCNC(=N)N)C(=O)N[C@@H](CS)C(=O)N[C@@H](CS)C(=O)N[C@@H](CCCCN)C(=O)N[C@H](C(=O)N[C@@H](CCCNC(=N)N)C(=O)O)[C@@H](C)CC)C(C)C)[C@@H](C)CC)[C@@H](C)O` [P9, reference compound] (H-NGAICWGPCPTAFRQIGNCGHFKVRCCKIR-OH), the “IC50 against SARS-CoV-2” value in series [1] was found to be 2.4 µg/mL (≈ 0.719 µM). For the same compound, the “IC50 against parainfluenza virus 3” value in series [2] is above 25.0 µg/mL.

Take `CC[C@H](C)[C@H](NC(=O)[C@H](C)NC(=O)CNC(=O)[C@@H](N)CC(N)=O)C(=O)N[C@@H](CS)C(=O)N[C@@H](Cc1c[nH]c2ccccc12)C(=O)NCC(=O)N1CCC[C@H]1C(=O)N[C@@H](CS)C(=O)N1CCC[C@H]1C(=O)N[C@H](C(=O)N[C@@H](C)C(=O)N[C@@H](Cc1ccccc1)C(=O)N[C@@H](CCCNC(=N)N)C(=O)N[C@@H](CCC(N)=O)C(=O)N[C@H](C(=O)NCC(=O)N[C@@H](CC(N)=O)C(=O)N[C@@H](CS)C(=O)NCC(=O)N[C@@H](CCCNC(=N)N)C(=O)N[C@@H](Cc1ccccc1)C(=O)N[C@@H](CCCNC(=N)N)C(=O)N[C@H](C(=O)N[C@@H](CCCNC(=N)N)C(=O)N[C@@H](CS)C(=O)N[C@@H](CS)C(=O)N[C@@H](CCCNC(=N)N)C(=O)N[C@H](C(=O)N[C@@H](CCCNC(=N)N)C(=O)O)[C@@H](C)CC)C(C)C)[C@@H](C)CC)[C@@H](C)O` [P9R] (H-NGAICWGPCPTAFRQIGNCGRFRVRCCRIR-OH): the “inhibition of endosomal acidification in live cells” value in series [3] is “could more significantly inhibit endosomal acidification in live cells than that of P9”. For the same compound, the “binding to SARS-CoV-2” value in [4] is on record as “could efficiently bind”. The binding to rhinovirus entry in series [5] was “could also bind”. Moreover, in series [6], the “inhibition of virus–host endosomal acidification in infected live cells” value is given as “could efficiently inhibit”. The “IC50 against SARS-CoV-2” value in series [1] was determined as 0.9 µg/mL (≈ 0.264 µM). Besides, in series [2], the “IC50 against parainfluenza virus 3” value was above 25.0 µg/mL. Also, in series [7], the “inhibition of viral replication, SARS-CoV-2” value is “more than 100 fold”. In series [8], the “inhibition of viral replication, MERS-CoV” value is given as “more than 100 fold”. Also, in series [9], the “inhibition of viral replication, SARS-CoV” value was “more than 100 fold”. Moreover, in series [10], the “inhibition of viral replication, A(H7N9) virus” value is above 20 fold. The “inhibition of viral replication, rhinovirus” value in series [11] was above 20 fold. Moreover, the “binding to H1N1 HA1 protein” value in series [12] is reported as “could also bind”. Further, the “binding to MERS-CoV S protein” value in series [13] is recorded as “could also bind”. Moreover, the “antiviral activity when cells were pretreated before viral infection” value in [14] is on record as “did not show antiviral activity”. Moreover, the “effect on viral attachment” value in series [15] is “did not affect viral attachment”. Besides, the “viral replication after 10,000-fold dilution of virus-peptide mixture” value in [16] is “could significantly inhibit viral replication”. For the same compound, the “inhibition of viral replication when added after SARS-CoV-2 infection” value in [17] is “could also significantly inhibit viral replication”. The solubility in series [18] is above 5000 µg/mL.

Regarding `CO/C1=C\C(C)=C\[C@@H](C)[C@@H](O)[C@@H](C)C/C(C)=C/C=C/[C@H](OC)[C@@H]([C@@H](C)[C@@H](O)[C@H](C)[C@@]2(O)C[C@@H](O)[C@H](C)[C@@H](C(C)C)O2)OC1=O` [bafilomycin A1, reference compound], the “inhibition of virus–host endosomal acidification in infected live cells” value in series [6] is listed as “could efficiently inhibit”.
